Measured values taken from patent US9540323B2 (BRISTOL-MYERS SQUIBB COMPANY, priority 2012, dated 2017).
Where two headings read alike, the source gives them in different places.

Experiments:
[1] = biological target: cloned human P2Y1 receptors (Homo sapiens (Human), UniProt P47900); assay: Binding Assay B - Scintillation Proximity Assay (SPA) for P2Y1 binding, [33P] 2MeS-ADP; conditions: SPA, 0.3 nM [33P] 2MeS-ADP, Cheng-Prusoff; read-out: P2Y1 Ki (nM) using binding assay B
Method: Binding Assay B—Scintillation Proximity Assay (SPA) for P2Y1 Binding
A SPA membrane binding assay was used to identify inhibitors of [^33P] […] Reactions were allowed to proceed to completion at room temperature for 1 hour followed by centrifugation of the plate for 5 min. About 40 μL of the aqueous solution was aspirated. Plates were sealed and the [^33P]

[2] = test system: human platelet rich plasma (PRP); assay: ADP induced platelet aggregation assay
[3] = Homo sapiens, Platelet, 5 min, read-out: PA IC50 (μM) @ 10 μM ADP, human PRP, 10 μM ADP, AUC at 5 minute

Chain of cloned human P2Y1 receptors (P47900 whole entry): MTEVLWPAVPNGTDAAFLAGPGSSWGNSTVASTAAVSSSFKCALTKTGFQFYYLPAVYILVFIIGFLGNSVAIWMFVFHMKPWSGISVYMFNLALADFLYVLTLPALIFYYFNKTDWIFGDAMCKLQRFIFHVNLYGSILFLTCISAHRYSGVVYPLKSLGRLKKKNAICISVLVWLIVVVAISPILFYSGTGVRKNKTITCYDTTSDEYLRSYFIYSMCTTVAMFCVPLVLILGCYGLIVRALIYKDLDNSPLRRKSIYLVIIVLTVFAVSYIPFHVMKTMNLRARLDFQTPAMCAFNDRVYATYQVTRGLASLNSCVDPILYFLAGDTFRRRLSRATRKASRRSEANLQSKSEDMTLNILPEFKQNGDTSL

Row | Compound | Ki [1] [nM] | IC50 [2, 3] [µM] | IC50 ([2]; read-out: PA IC50 (μM) @ 10 μM ADP, human PRP, 10 μM ADP, AUC at 5 minute) [µM]
1 | CC(C)Cc1nc(-c2c(F)cc(O)c3c2C(C)(C)CN3c2ccccc2NC(=O)Nc2ccc(OC(F)(F)F)cc2)co1 [Example 260, 1-(2-(5-Fluoro-7-hydroxy-4-(2-isobutyloxazol-4-yl)-3,3-dimethylindolin-1-yl)phenyl)-3-(4-(trifluoromethoxy)phenyl)urea] | 18.8 | 0.4 | –
2 | Cc1nc(-c2c(F)cc(O)c3c2C(C)(C)CN3c2ccccc2NC(=O)Nc2ccc(OC(F)(F)F)cc2)co1 [Example 274, 1-(2-(5-Fluoro-7-hydroxy-3,3-dimethyl-4-(2-methyloxazol-4-yl)indolin-1-yl)phenyl)-3-(4-(trifluoromethoxy)phenyl)urea] | 7.4 | 3.39 | –
3 | CC(C)n1nc(-c2c(F)cc(O)c3c2C(C)(C)CN3c2ccccc2NC(=O)Nc2csc(C(F)(F)F)n2)cc1C(F)(F)F [Example 272, 1-(2-(5-Fluoro-7-hydroxy-4-(1-isopropyl-5-(trifluoromethyl)-1H-pyrazol-3-yl)-3,3-dimethylindolin-1-yl)phenyl)-3-(2-(trifluoromethyl)thiazol-4-yl)urea] | 16.7 | 0.18 | –
4 | CC(C)(C)c1nc(-c2c(F)cc(O)c3c2C(C)(C)CN3c2ccccc2NC(=O)Nc2nc3ccc(F)cc3s2)co1 [Example 254, 1-(2-(4-(2-tert-Butyloxazol-4-yl)-5-fluoro-7-hydroxy-3,3-dimethylindolin-1-yl)phenyl)-3-(6-fluorobenzo[d]thiazol-2-yl)urea] | 13.7 | 0.87 | –
5 | CC1(C)CN(c2ccccc2NC(=O)Nc2ccc(OC(F)(F)F)cc2)c2c(O)cc(F)c(-c3ccc(C(F)(F)F)cc3)c21 [Example 222, 1-(2-(5-Fluoro-7-hydroxy-3,3-dimethyl-4-(4-(trifluoromethyl)phenyl)indolin-1-yl)phenyl)-3-(4-(trifluoromethoxy)phenyl)urea] | 35 | – | –
6 | CC(C)(C)c1ccc(NC(=O)Nc2ccccc2N2CC(C)(C)c3c(C(F)(F)F)ccc(O)c32)cc1 [Example 13, 1-(4-tert-Butylphenyl)-3-(2-(7-hydroxy-3,3-dimethyl-4-(trifluoromethyl)indolin-1-yl)phenyl)urea] | 8.2 | 0.13 | –
7 | CC(C)CN1CCC(c2ccc(NC(=O)Nc3ccccc3N3CC(C)(C)c4c(-c5ccc(Cl)cc5)c(F)cc(O)c43)cc2)CC1 [Example 238, 1-(2-(4-(4-Chlorophenyl)-5-fluoro-7-hydroxy-3,3-dimethylindolin-1-yl)phenyl)-3-(4-(1-isobutylpiperidin-4-yl)phenyl)urea] | 16.3 | 0.4 | –
8 | CC1(C)CN(c2ccccc2NC(=O)Nc2nc3ccc(Cl)cc3s2)c2c(O)ccc(Br)c21 [Example 41, 1-(2-(4-Bromo-7-hydroxy-3,3-dimethylindolin-1-yl)phenyl)-3-(6-chlorobenzo[d]thiazol-2-yl)urea] | 10.6 | 0.47 | –
9 | CC(C)(C)c1ccccc1Oc1ncccc1NC(=O)Nc1ccccc1N1CC(C)(C)c2ccccc21 [Comparator 3, reference compound] | 759 | > 20 | –
10 | CCC1(CC)CN(c2ccccc2NC(=O)Nc2ccc(C3CCCN3CC(C)C)cc2)c2c(O)cccc21 (stereo not shown) [Example 8] | 18.6 | 0.31 | –
11 | CC1(C)CN(c2ccccc2NC(=O)Nc2ccc(OC(F)(F)F)cc2)c2c(O)cc(F)c(-c3ccc(C#N)cc3)c21 [Example 248, 1-(2-(4-(4-Cyanophenyl)-5-fluoro-7-hydroxy-3,3-dimethylindolin-1-yl)phenyl)-3-(4-(trifluoromethoxy)phenyl)urea] | 7.4 | 0.43 | –
12 | CC1(C)CN(c2ccccc2NC(=O)Nc2csc(Cl)n2)c2c(O)cc(F)c(-c3nc4cc(F)ccc4s3)c21 [Example 181, 1-(2-Chlorothiazol-4-yl)-3-(2-(5-fluoro-4-(5-fluorobenzo[d]thiazol-2-yl)-7-hydroxy-3,3-dimethylindolin-1-yl)phenyl)urea] | 9.7 | 0.49 | –
13 | CCC1(CC)CN(c2ccccc2NC(=O)Nc2ccc(OC(F)(F)F)cc2)c2c(O)cc(F)cc21 [Example 5, 1-(2-(3,3-Diethyl-5-fluoro-7-hydroxyindolin-1-yl)phenyl)-3-(4-(trifluoromethoxy)phenyl)urea] | 16 | 1.05 | –
14 | CC(C)(C)c1ccc(-c2c(F)cc(O)c3c2C(C)(C)CN3c2ccccc2NC(=O)Nc2csc(C(F)(F)F)n2)cc1 [Example 243, 1-(2-(4-(4-(tert-Butyl)phenyl)-5-fluoro-7-hydroxy-3,3-dimethylindolin-1-yl)phenyl)-3-(2-(trifluoromethyl)thiazol-4-yl)urea] | 20.3 | 0.1 | –
15 | CCC1(CC)CN(c2ccccc2NC(=O)Nc2nc3ccc(C)cc3s2)c2c(O)cccc21 [Example 10, 1-(2-(3,3-Diethyl-7-hydroxyindolin-1-yl)phenyl)-3-(6-methylbenzo[d]thiazol-2-yl)urea] | 7.6 | 0.54 | –
16 | CC(C)n1nc(-c2c(F)cc(O)c3c2C(C)(C)CN3c2ccccc2NC(=O)Nc2nc3ccc(F)cc3s2)cc1C(F)(F)F [Example 253, 1-(2-(5-Fluoro-7-hydroxy-4-(1-isopropyl-5-(trifluoromethyl)-1H-pyrazol-3-yl)-3,3-dimethylindolin-1-yl)phenyl)-3-(6-fluorobenzo[d]thiazol-2-yl)urea] | 33.4 | 0.12 | –
17 | CCC1(CC)CN(c2ccccc2NC(=O)Nc2nc3ccc(Cl)cc3s2)c2c(O)cccc21 [Example 9, 1-(6-Chlorobenzo[d]thiazol-2-yl)-3-(2-(3,3-diethyl-7-hydroxyindolin-1-yl)phenyl)urea] | 14.2 | 0.39 | –
18 | CC1(C)CN(c2ccccc2NC(=O)Nc2ccc(OC(F)(F)F)cc2)c2c(O)cc(F)c(-c3cc(F)nc(F)c3)c21 [Example 161, 1-(2-(4-(2,6-Difluoropyridin-4-yl)-5-fluoro-7-hydroxy-3,3-dimethylindolin-1-yl)phenyl)-3-(4-(trifluoromethoxy)phenyl)urea] | 6.6 | 0.16 | –
19 | CCC1(CC)CN(c2ccccc2NC(=O)Nc2ccc(OC(F)(F)F)cc2)c2c(O)ccc(Cl)c21 [Example 51, 1-(2-(4-Chloro-3,3-diethyl-7-hydroxyindolin-1-yl)phenyl)-3-(4-(trifluoromethoxy)phenyl)urea] | 14.1 | 0.41 | –
20 | CC1(C)CN(c2ccccc2NC(=O)Nc2csc(C(F)(F)F)n2)c2c(O)cc(F)c(-c3ccc(Cl)cc3)c21 [Example 223, 1-(2-(4-(4-Chlorophenyl)-5-fluoro-7-hydroxy-3,3-dimethylindolin-1-yl)phenyl)-3-(2-(trifluoromethyl)thiazol-4-yl)urea] | 34.4 | – | –
21 | CC1(C)CN(c2ccccc2NC(=O)Nc2nc3ccc(Cl)nc3s2)c2c(O)cc(F)c(-c3nc4ccc(F)cc4s3)c21 [Example 143, 1-(5-Chlorothiazolo[5,4-b]pyridin-2-yl)-3-(2-(5-fluoro-4-(6-fluorobenzo[d]thiazol-2-yl)-7-hydroxy-3,3-dimethylindolin-1-yl)phenyl)urea] | – | 0.33 | –
22 | CC1(C)CN(c2ccccc2NC(=O)Nc2ccc(OC(F)(F)F)cc2)c2c(O)cc(F)c(-c3ccc(Cl)cc3)c21 [Example 220, 1-(2-(4-(4-Chlorophenyl)-5-fluoro-7-hydroxy-3,3-dimethylindolin-1-yl)phenyl)-3-(4-(trifluoromethoxy)phenyl)urea] | – | – | 0.24
